Measurements as given in article PMC4079544, “A Linear Relationship between Crystal Size and Fragment Binding Time Observed Crystallographically: Implications for Fragment Library Screening Using Acoustic Droplet Ejection” (PLoS ONE, 2014).

Biological target: T1, Lysozyme (Gallus gallus, UniProt P00698)
T1 construct: gene LYZ
Test: X-ray crystallography of soaked crystals ([…] data sets), ligand occupancy vs soak time; Kd^cryst from fitted Omax
Type: binding

T1 sequence (P00698 19-147): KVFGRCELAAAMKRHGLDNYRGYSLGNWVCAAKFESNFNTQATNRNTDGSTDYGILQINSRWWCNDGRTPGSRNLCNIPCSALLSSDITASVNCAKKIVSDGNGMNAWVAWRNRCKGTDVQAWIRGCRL

Kd: 5.4 mM
Compound: CC(=O)N[C@H]1C(O)O[C@H](CO)[C@@H](O)[C@@H]1O (stereo partly shown) [NAG, N-acetyl glucosamine]
